Experimental data as given in patent US11697648B2, “Fused pyrimidine pyridinone compounds as JAK inhibitors” (THERAVANCE BIOPHARMA R&D IP, LLC, priority 2019, dated 2023).

What was measured:
JAK1 = JAK1 (Homo sapiens (Human), UniProt P23458); assay: Biochemical JAK1 kinase assay (LanthaScreen)
Method in brief: (§1)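 GST-JAK + GFP-STAT1 peptide, HEPES pH 7.5/MgCl2/EGTA/Brij-35 buffer; cpd preincubation 1 h RT; ATP start, 1 h RT; stop with 10 mM EDTA + 2 nM Tb-anti-pSTAT1; TR-FRET 520/495. 4-parameter IC50 → pKi (Cheng-Prusoff).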

JAK2 = JAK2 (Homo sapiens (Human), UniProt O60674); assay: Biochemical JAK2 kinase assay (LanthaScreen)
JAK2, sequence (O60674 whole entry): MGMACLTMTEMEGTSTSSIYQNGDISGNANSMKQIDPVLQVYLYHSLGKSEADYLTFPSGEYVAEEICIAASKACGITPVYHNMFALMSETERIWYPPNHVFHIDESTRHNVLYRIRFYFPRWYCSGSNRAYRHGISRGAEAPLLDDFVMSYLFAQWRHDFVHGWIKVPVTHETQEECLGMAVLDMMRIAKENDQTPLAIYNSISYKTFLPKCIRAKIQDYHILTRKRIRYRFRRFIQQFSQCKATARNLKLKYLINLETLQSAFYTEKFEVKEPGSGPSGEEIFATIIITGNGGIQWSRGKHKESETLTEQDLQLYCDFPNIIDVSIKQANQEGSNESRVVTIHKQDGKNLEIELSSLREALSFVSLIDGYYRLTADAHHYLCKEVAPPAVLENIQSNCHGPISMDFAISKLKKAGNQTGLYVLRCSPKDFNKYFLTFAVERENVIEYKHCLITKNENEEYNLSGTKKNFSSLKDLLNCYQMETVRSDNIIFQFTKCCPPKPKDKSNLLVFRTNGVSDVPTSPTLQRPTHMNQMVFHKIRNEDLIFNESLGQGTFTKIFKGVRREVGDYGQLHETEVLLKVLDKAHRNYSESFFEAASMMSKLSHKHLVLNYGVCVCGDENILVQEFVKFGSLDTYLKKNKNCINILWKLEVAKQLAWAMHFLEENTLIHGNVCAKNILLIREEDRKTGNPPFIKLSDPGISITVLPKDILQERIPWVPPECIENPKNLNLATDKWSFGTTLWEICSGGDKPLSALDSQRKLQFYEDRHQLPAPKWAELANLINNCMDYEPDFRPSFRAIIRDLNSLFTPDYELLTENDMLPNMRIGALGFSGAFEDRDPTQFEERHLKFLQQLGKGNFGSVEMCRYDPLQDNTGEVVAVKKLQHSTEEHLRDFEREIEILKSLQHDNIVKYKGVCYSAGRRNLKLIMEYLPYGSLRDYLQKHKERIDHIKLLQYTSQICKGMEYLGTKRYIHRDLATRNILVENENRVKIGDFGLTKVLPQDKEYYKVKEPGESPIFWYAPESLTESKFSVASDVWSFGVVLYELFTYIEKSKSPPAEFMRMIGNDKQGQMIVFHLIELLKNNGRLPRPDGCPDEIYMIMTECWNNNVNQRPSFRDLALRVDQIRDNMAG
Method in brief: as §1

JAK3 = JAK3 (Homo sapiens (Human), UniProt P52333); assay: Biochemical JAK3 kinase assay (LanthaScreen); details: for JAK3 (pKi)-JAK1 (pKi): selectivity JAK3 over JAK1, difference of pKi
JAK3, sequence (P52333 whole entry): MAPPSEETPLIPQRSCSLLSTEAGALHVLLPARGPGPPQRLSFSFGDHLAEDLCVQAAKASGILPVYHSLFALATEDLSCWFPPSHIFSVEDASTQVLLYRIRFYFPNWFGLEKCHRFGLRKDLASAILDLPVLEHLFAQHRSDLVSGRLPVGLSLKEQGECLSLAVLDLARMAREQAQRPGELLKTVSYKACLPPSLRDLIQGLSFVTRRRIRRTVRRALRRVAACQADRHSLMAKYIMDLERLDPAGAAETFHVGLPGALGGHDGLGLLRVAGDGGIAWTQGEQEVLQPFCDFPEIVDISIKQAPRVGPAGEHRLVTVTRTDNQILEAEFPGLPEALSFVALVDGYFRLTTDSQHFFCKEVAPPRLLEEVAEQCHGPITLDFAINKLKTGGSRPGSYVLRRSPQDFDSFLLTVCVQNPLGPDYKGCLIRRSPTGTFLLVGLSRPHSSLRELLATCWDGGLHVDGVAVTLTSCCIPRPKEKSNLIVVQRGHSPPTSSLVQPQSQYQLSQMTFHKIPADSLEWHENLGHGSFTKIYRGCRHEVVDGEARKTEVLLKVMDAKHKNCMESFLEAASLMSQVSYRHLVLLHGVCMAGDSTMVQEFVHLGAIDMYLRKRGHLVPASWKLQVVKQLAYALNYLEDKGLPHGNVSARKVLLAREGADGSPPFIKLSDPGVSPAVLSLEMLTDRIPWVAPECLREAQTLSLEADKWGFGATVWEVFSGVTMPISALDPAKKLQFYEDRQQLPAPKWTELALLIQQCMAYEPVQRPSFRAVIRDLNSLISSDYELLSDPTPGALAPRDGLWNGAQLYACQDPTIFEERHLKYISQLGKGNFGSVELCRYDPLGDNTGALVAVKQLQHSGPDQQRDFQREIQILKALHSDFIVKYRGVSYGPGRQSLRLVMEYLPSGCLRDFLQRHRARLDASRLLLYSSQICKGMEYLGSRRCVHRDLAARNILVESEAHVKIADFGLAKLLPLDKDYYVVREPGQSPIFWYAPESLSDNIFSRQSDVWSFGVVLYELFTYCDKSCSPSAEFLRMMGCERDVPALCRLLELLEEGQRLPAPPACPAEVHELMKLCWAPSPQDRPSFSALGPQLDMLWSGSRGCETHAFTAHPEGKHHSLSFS
Method in brief: as §1

Tyk2 = Tyk2 (Homo sapiens (Human), UniProt P29597); assay: Biochemical Tyk2 kinase assay (LanthaScreen)
Tyk2, sequence (P29597 whole entry): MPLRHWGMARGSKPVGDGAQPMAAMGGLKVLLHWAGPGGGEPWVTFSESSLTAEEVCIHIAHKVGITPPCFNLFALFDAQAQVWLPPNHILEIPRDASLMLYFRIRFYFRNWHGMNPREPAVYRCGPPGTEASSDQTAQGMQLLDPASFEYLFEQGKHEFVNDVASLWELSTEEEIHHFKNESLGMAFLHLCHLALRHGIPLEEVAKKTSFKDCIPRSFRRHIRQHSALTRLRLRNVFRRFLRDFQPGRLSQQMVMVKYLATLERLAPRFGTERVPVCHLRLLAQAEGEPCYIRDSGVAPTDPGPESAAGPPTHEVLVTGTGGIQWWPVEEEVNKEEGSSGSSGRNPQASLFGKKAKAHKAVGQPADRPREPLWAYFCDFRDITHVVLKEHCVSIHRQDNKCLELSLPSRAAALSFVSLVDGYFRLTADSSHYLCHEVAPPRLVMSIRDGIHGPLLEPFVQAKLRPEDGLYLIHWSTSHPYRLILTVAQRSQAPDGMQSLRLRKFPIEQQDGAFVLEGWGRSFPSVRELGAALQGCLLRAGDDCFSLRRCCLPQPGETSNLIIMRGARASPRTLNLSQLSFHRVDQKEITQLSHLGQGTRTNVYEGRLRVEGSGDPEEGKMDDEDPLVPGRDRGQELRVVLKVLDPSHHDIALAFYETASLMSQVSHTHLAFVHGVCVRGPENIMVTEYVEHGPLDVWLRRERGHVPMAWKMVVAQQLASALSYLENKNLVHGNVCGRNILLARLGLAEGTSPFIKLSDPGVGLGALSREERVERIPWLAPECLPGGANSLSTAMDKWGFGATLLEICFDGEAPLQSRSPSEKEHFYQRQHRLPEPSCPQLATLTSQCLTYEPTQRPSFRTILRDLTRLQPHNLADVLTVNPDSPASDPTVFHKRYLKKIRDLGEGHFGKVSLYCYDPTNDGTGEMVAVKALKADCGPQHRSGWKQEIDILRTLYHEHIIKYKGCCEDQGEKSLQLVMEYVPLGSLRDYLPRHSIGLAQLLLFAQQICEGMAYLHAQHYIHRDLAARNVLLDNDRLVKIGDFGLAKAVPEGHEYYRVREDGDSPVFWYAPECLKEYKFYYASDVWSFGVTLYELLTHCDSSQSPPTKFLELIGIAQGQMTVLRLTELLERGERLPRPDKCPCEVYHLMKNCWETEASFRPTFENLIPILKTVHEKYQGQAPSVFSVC
Method in brief: as §1

[1] = tested on: IL-2 stimulated STAT5 phosphorylation in Tall-1 human T cell line (JAK3); assay: Cellular JAK3 potency assay: inhibition of IL-2 stimulated pSTAT5 in Tall-1 T cells; format: cell-based; details: IL-2 stimulated pSTAT5, Tall-1 T cells
Method in brief: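 AlphaLISA SureFire Ultra measures STAT5 Tyr694/699 phosphorylation in lysed Tall-1 human T cells. Cells were exposed to compound for 1 h at 37 °C before a 30 min IL-2 challenge (300 ng/ml final). Values are pIC50 means with standard deviation from signal-versus-concentration curves.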

JAK1, sequence (P23458 whole entry): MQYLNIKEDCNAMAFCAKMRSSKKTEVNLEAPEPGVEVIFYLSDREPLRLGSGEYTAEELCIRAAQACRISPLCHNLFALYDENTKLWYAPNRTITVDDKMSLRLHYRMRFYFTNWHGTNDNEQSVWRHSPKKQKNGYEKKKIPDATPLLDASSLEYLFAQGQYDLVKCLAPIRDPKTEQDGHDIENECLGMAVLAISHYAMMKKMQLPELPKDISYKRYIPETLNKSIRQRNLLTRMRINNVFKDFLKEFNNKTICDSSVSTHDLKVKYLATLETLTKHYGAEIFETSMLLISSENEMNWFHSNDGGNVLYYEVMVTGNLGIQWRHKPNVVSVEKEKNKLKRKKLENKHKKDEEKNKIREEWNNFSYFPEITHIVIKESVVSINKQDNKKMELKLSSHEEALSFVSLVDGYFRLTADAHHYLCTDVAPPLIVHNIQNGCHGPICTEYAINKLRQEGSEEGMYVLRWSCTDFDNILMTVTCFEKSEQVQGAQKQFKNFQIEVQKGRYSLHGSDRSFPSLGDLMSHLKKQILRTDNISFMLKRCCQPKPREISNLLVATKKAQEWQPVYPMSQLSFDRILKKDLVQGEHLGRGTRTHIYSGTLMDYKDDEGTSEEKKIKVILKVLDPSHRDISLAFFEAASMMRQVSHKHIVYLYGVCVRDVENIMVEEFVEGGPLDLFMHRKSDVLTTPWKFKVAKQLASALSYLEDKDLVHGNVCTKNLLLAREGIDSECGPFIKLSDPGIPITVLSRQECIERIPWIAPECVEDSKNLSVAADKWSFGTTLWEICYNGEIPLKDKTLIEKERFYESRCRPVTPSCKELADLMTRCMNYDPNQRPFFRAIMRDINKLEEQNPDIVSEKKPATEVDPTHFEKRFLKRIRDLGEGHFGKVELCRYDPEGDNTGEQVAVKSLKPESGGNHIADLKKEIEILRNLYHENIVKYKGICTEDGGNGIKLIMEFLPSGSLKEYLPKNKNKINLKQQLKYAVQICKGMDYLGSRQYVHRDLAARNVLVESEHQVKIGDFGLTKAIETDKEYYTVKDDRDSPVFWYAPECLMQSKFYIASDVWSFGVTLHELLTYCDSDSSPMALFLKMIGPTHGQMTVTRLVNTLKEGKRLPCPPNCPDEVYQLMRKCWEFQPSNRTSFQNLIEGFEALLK

SMILES | JAK 1 (pKi) (JAK1) | JAK 2 (pKi) (JAK2) | JAK 3 (pKi) (JAK3) | JAK3 (pKi)-JAK1 (pKi) (JAK3) | Tyk 2 (pKi) (Tyk2) | Tall-1 (pIC50) [1]
C=CC(=O)N1CC(CCn2c(=O)ccc3cnc(Nc4ccc(N5CCN(C(=O)C(C)C)CC5)cc4)nc32)C1 [Example 75] | E (E represents a pKi value of 7 or below (Ki of 100 nM or above)) | E (E represents a pKi value of 7 or below (Ki of 100 nM or above)) | C (C represents a pKi value between 8 and 9 (Ki between 10 nM and 1 nM)) | B (B represents a value of 2.5 to 3) | E (E represents a pKi value of 7 or below (Ki of 100 nM or above)) | C (C represents a pIC50 value between 6 and 6.7 (IC50 between 1 μM and 200 nM))
C=CC(=O)N1CC(CCn2c(=O)ccc3cnc(Nc4ccc5[nH]cnc5c4)nc32)C1 [Example 84] | E (E represents a pKi value of 7 or below (Ki of 100 nM or above)) | E (E represents a pKi value of 7 or below (Ki of 100 nM or above)) | B (B represents pKi value between 9 and 10 (Ki between 1 nM and 0.1 nM)) | A (A represents a value of 3 or above) | E (E represents a pKi value of 7 or below (Ki of 100 nM or above)) | C (C represents a pIC50 value between 6 and 6.7 (IC50 between 1 μM and 200 nM))
C=CC(=O)N1CCN(CCn2c(=O)ccc3cnc(Nc4ccc(C5CCN(C)CC5)cc4)nc32)CC1 [Example 87] | E (E represents a pKi value of 7 or below (Ki of 100 nM or above)) | E (E represents a pKi value of 7 or below (Ki of 100 nM or above)) | B (B represents pKi value between 9 and 10 (Ki between 1 nM and 0.1 nM)) | A (A represents a value of 3 or above) | E (E represents a pKi value of 7 or below (Ki of 100 nM or above)) | A (A represents a pIC50 value≥7.5 (IC50≤32 nM))
C=CC(=O)N1CC(CCn2c(=O)ccc3cnc(Nc4ccc(N5CCN(C(=O)NC)CC5)cc4)nc32)C1 [Example 93] | E (E represents a pKi value of 7 or below (Ki of 100 nM or above)) | E (E represents a pKi value of 7 or below (Ki of 100 nM or above)) | A (A represents a pKi value≥10 (Ki≤0.1 nM)) | A (A represents a value of 3 or above) | E (E represents a pKi value of 7 or below (Ki of 100 nM or above)) | B (B represents a pC50 value between 6.7 (included) and 7.5 (IC50 between 200 nM and 32 nM))
C=CC(=O)N1CC(CCn2c(=O)ccc3cnc(Nc4ccc(N5CCN(S(=O)(=O)N(C)C)CC5)cc4)nc32)C1 [Example 97] | E (E represents a pKi value of 7 or below (Ki of 100 nM or above)) | E (E represents a pKi value of 7 or below (Ki of 100 nM or above)) | B (B represents pKi value between 9 and 10 (Ki between 1 nM and 0.1 nM)) | A (A represents a value of 3 or above) | E (E represents a pKi value of 7 or below (Ki of 100 nM or above)) | A (A represents a pIC50 value≥7.5 (IC50≤32 nM))
C=CC(=O)N1CC(CCn2c(=O)ccc3cnc(Nc4ccc(N5CCN(C(=O)CC(C)C)CC5)cc4)nc32)C1 [Example 103] | E (E represents a pKi value of 7 or below (Ki of 100 nM or above)) | E (E represents a pKi value of 7 or below (Ki of 100 nM or above)) | A (A represents a pKi value≥10 (Ki≤0.1 nM)) | A (A represents a value of 3 or above) | E (E represents a pKi value of 7 or below (Ki of 100 nM or above)) | A (A represents a pIC50 value≥7.5 (IC50≤32 nM))
C=CC(=O)N1CC(CCn2c(=O)ccc3cnc(Nc4ccc(N5CCN(C(=O)C(C)(C)C)CC5)cc4)nc32)C1 [Example 104] | E (E represents a pKi value of 7 or below (Ki of 100 nM or above)) | E (E represents a pKi value of 7 or below (Ki of 100 nM or above)) | A (A represents a pKi value≥10 (Ki≤0.1 nM)) | A (A represents a value of 3 or above) | E (E represents a pKi value of 7 or below (Ki of 100 nM or above)) | A (A represents a pIC50 value≥7.5 (IC50≤32 nM))
C=CC(=O)N1CC(CCn2c(=O)ccc3cnc(Nc4cccc(CN5CCN(C(=O)OC)CC5)c4)nc32)C1 [Example 111] | E (E represents a pKi value of 7 or below (Ki of 100 nM or above)) | E (E represents a pKi value of 7 or below (Ki of 100 nM or above)) | B (B represents pKi value between 9 and 10 (Ki between 1 nM and 0.1 nM)) | A (A represents a value of 3 or above) | E (E represents a pKi value of 7 or below (Ki of 100 nM or above)) | B (B represents a pC50 value between 6.7 (included) and 7.5 (IC50 between 200 nM and 32 nM))
C=CC(=O)N1CC(CCn2c(=O)ccc3cnc(Nc4ccc(N5CCN(CCN6CCCCC6)CC5)cc4)nc32)C1 [Example 113] | E (E represents a pKi value of 7 or below (Ki of 100 nM or above)) | E (E represents a pKi value of 7 or below (Ki of 100 nM or above)) | B (B represents pKi value between 9 and 10 (Ki between 1 nM and 0.1 nM)) | A (A represents a value of 3 or above) | E (E represents a pKi value of 7 or below (Ki of 100 nM or above)) | A (A represents a pIC50 value≥7.5 (IC50≤32 nM))
C=CC(=O)N1CC(CCn2c(=O)ccc3cnc(Nc4ccc(N5CCN(CC)CC5)cc4)nc32)C1 [Example 114] | E (E represents a pKi value of 7 or below (Ki of 100 nM or above)) | E (E represents a pKi value of 7 or below (Ki of 100 nM or above)) | A (A represents a pKi value≥10 (Ki≤0.1 nM)) | A (A represents a value of 3 or above) | E (E represents a pKi value of 7 or below (Ki of 100 nM or above)) | A (A represents a pIC50 value≥7.5 (IC50≤32 nM))
C=CC(=O)N1CC(CCn2c(=O)ccc3cnc(Nc4ccc(N5CCN(C(C)CC)CC5)cc4)nc32)C1 (stereo not drawn) [Example 115] | E (E represents a pKi value of 7 or below (Ki of 100 nM or above)) | E (E represents a pKi value of 7 or below (Ki of 100 nM or above)) | B (B represents pKi value between 9 and 10 (Ki between 1 nM and 0.1 nM)) | A (A represents a value of 3 or above) | E (E represents a pKi value of 7 or below (Ki of 100 nM or above)) | A (A represents a pIC50 value≥7.5 (IC50≤32 nM))
C=CC(=O)N1CC(CCn2c(=O)ccc3cnc(Nc4ccc(N5CCN(CCC6CCCCC6)CC5)cc4)nc32)C1 [Example 116] | E (E represents a pKi value of 7 or below (Ki of 100 nM or above)) | E (E represents a pKi value of 7 or below (Ki of 100 nM or above)) | B (B represents pKi value between 9 and 10 (Ki between 1 nM and 0.1 nM)) | B (B represents a value of 2.5 to 3) | E (E represents a pKi value of 7 or below (Ki of 100 nM or above)) | B (B represents a pC50 value between 6.7 (included) and 7.5 (IC50 between 200 nM and 32 nM))
C=CC(=O)N1CC(CCn2c(=O)ccc3cnc(Nc4ccc(N5CCN(C6CC6)CC5)cc4)nc32)C1 [Example 118] | E (E represents a pKi value of 7 or below (Ki of 100 nM or above)) | E (E represents a pKi value of 7 or below (Ki of 100 nM or above)) | B (B represents pKi value between 9 and 10 (Ki between 1 nM and 0.1 nM)) | A (A represents a value of 3 or above) | E (E represents a pKi value of 7 or below (Ki of 100 nM or above)) | B (B represents a pC50 value between 6.7 (included) and 7.5 (IC50 between 200 nM and 32 nM))
C=CC(=O)N1CC(CCn2c(=O)ccc3cnc(Nc4ccc(N5CCN(CC(F)(F)F)CC5)cc4)nc32)C1 [Example 119] | E (E represents a pKi value of 7 or below (Ki of 100 nM or above)) | E (E represents a pKi value of 7 or below (Ki of 100 nM or above)) | A (A represents a pKi value≥10 (Ki≤0.1 nM)) | A (A represents a value of 3 or above) | E (E represents a pKi value of 7 or below (Ki of 100 nM or above)) | B (B represents a pC50 value between 6.7 (included) and 7.5 (IC50 between 200 nM and 32 nM))
